Experiments:
Format in all cases: biochemical
LG-PARP10cat = LG-PARP10cat (Homo sapiens, UniProt Q53GL7, L926G); conditions: for increase in potency against LG-PARP10cat compared to 1: compared to parent dq scaffold 1
GFP-WT-PARP10 = biological target: T1, GFP-WT-PARP10 (Homo sapiens, UniProt Q53GL7); conditions: up to 100 μM; immunoprecipitated from HEK 293T cells, 6-alkyne-NAD+ substrate
T1 sequence (Q53GL7 1-1025): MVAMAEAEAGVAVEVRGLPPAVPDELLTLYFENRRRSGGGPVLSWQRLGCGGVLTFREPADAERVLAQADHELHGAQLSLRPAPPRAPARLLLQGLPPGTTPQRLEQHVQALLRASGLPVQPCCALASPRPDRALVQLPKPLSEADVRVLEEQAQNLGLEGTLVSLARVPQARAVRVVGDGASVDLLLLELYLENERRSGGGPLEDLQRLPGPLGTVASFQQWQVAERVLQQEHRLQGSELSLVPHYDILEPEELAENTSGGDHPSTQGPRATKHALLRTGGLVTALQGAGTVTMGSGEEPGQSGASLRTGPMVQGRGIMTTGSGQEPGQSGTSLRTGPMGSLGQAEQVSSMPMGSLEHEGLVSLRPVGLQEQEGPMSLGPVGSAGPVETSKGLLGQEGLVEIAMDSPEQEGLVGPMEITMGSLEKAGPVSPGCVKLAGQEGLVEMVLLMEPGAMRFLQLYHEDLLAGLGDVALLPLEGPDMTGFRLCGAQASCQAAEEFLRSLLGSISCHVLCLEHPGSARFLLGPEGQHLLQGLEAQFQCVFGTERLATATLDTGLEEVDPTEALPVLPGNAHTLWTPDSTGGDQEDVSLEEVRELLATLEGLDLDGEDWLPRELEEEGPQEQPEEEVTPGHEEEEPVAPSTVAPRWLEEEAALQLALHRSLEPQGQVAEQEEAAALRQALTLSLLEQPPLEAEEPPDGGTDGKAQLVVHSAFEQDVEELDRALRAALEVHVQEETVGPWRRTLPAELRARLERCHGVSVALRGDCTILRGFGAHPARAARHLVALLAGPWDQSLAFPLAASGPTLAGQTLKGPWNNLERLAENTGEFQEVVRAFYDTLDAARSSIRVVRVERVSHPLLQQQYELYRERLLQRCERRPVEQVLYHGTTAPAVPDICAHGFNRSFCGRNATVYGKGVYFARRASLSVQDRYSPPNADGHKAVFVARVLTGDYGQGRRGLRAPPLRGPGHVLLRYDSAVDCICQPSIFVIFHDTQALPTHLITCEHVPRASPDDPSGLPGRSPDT

GFP-LG-PARP10 = GFP-LG-PARP10 (Homo sapiens, UniProt Q53GL7, L926G); conditions: immunoprecipitated from HEK 293T cells, 6-alkyne-NAD+ substrate
Sequence of GFP-LG-PARP10 (Q53GL7 whole entry L926G): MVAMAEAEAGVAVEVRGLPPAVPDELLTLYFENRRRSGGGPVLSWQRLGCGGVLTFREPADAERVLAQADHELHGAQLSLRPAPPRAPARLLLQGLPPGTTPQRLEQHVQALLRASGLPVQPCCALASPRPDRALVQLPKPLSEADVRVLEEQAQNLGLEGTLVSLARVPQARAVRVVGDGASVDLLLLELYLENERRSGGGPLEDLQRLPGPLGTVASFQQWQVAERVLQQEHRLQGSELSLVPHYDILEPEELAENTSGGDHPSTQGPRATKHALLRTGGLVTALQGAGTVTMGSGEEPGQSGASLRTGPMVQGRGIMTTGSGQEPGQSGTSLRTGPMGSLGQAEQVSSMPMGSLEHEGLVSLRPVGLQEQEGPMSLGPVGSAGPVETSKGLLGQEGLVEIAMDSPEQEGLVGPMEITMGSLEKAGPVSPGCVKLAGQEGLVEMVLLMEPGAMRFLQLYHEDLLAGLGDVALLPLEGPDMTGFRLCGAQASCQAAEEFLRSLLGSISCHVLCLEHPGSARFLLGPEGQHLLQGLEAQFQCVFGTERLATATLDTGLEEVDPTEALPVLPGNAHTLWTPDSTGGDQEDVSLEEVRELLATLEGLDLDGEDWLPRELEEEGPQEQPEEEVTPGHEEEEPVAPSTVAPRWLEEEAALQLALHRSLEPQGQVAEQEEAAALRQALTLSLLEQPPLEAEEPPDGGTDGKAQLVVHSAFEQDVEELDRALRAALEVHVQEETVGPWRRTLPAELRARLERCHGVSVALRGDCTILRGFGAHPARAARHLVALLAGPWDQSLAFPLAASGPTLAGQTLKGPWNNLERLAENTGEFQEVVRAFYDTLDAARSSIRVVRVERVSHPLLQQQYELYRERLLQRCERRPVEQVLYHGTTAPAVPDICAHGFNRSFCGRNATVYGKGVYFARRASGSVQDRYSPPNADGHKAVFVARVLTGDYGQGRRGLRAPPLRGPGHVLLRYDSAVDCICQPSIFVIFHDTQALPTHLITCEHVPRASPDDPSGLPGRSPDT

Sequence of LG-PARP10cat (Q53GL7 806-1025 L926G): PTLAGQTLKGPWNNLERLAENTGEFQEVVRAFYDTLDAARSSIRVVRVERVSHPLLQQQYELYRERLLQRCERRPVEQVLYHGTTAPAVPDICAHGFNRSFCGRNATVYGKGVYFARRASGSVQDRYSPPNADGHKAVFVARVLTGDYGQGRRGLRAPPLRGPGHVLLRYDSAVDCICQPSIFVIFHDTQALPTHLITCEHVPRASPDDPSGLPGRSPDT

Compound	increase in potency against LG-PARP10cat compared to 1 (LG-PARP10cat)	effect on auto-ADP-ribosylation of GFP-WT-PARP10 (GFP-WT-PARP10)	inhibition of auto-ADP-ribosylation of GFP-LG-PARP10 (GFP-LG-PARP10)	selectivity for LG-PARP10cat versus WT-PARP10cat (LG-PARP10cat; LG- versus WT-PARP10cat)
Cc1ccc2c(c1)C(=O)NCC2 [Compound 5]	did not exhibit increased potency			
COc1ccc2c(c1)C(=O)NCC2 [Compound 8]	did not exhibit increased potency			
O=C1NCCc2ccc(C(F)(F)F)cc21 [Compound 6]	2 fold			
O=C1NCCc2ccc(Br)cc21 [Compound 4, 7-Br-dq]		unaffected	inhibited the auto-ADP-ribosylation of GFP-LG-PARP10 in a dose-dependent manner	greater than 10 fold
O=C1NCCc2ccc(O)cc21 [Compound 7]	did not exhibit increased potency			
